Structures are written as SMILES.

Usually IC50 stands for the midpoint of a concentration-inhibition curve.

Chain of human Plasma Kallikrein (P03952 20-638): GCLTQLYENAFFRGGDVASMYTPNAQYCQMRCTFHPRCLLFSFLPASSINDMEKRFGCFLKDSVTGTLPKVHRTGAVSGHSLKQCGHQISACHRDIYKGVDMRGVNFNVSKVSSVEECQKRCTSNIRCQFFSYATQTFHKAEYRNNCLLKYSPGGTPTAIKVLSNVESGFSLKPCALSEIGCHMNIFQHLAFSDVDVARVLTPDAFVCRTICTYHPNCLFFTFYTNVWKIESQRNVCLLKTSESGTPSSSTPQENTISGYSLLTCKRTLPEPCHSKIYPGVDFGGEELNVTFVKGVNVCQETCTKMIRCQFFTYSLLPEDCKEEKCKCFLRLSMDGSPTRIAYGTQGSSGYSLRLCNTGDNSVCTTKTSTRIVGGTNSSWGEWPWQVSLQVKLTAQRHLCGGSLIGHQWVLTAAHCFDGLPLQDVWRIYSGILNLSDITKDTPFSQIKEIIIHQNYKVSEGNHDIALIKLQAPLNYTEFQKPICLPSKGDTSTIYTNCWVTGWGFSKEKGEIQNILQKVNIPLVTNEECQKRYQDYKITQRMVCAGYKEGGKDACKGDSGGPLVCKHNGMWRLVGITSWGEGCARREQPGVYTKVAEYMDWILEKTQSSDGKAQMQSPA

This test deals with human Plasma Kallikrein (Homo sapiens (Human), UniProt P03952). The experiment in a line: In vitro enzyme inhibition of human plasma kallikrein (PFR-AMC cleavage). To be noted: human plasma kallikrein, Pro-Phe-Arg-AMC substrate, 37° C.; read-out: hPK IC50. The test is classed as biochemical. On the procedure:
The ability of the compounds disclosed herein to inhibit human plasma kallikrein activity was quantified according to the procedures below.
A 10 mM solution of the test compound was made in DMSO. […] A control tube containing only DMSO is included. 16 μL of each compound test solution was combined with 384 μL of assay buffer (50 mM Tris-HCl pH 7.5, 150 mM NaCl, 0.01% Triton X-100) to yield a “4× test compound buffer stock”.
These solutions are hereby referred to as 4×hPK and 2×PFR-AMC, respectively.
50 μL was removed from this mixture and placed into duplicate wells on a Microfluor 1Black U-bottom microtiter plate (Thermo Scientific). This plate was incubated for 5 minutes at 37° C. To each well, 50 μL of pre-warmed 2×PFR-AMC was added to start the enzymatic reaction. Cleavage of PFR-AMC was monitored in a Biotek Synergy H4 reader set at 37° C. Readings are taken every 43 seconds for 1 hour. […] The IC50 is calculated using the Gen5 (Biotek Instruments).
The ability of the compounds in Table 3 to inhibit human plasma kallikrein activity was determined.
For `N#Cc1cnc2ccc(Cc3cc(C(=O)NCc4ccc5c(N)nccc5c4)ccn3)cc2c1` [Example 6, N-((1-aminoisoquinolin-6-yl)methyl)-2-((3-cyanoquinolin-6-yl)methyl)isonicotinamide], the 50% inhibitory concentration (IC50) is under 100 nM. As to `Cc1cnc2c(C#N)cc(Cc3cc(C(=O)NCc4ccc5[nH]cc(Cl)c5c4F)ccn3)cc2c1` [Example 74, N-((3-chloro-4-fluoro-1H-indol-5-yl)methyl)-2-((8-cyano-3-methylquinolin-6-yl)methyl)isonicotinamide], the IC50 is under 100 nM. As for `Nc1ccc(CNC(=O)c2ccnc(Cc3ccc4ncc(Cl)cc4c3)c2)c(C2CC2)n1` [Example 43, N-((6-amino-2-cyclopropylpyridin-3-yl)methyl)-2-((3-chloroquinolin-6-yl)methyl)isonicotinamide], the IC50 fell in the range of 100 to 1000 nM. Take `Cc1cc(N)ncc1CNC(=O)c1ccnc(Cc2cc(C(N)=O)c3ncc(Cl)cc3c2)c1` [Example 63, 6-((4-(((6-amino-4-methylpyridin-3-yl)methyl)carbamoyl)pyridin-2-yl)methyl)-3-chloroquinoline-8-carboxamide]: the IC50 is under 100 nM.

With `Cc1cc(N)nc(C)c1CNC(=O)c1ccnc(Cn2ncc3cc(Cl)ccc32)c1` [Example 105, N-((6-amino-2,4-dimethylpyridin-3-yl)methyl)-2-((5-chloro-1H-indazol-1-yl)methyl)isonicotinamide], the IC50 was under 100 nM.

Consider `CS(=O)(=O)c1ccc2cc(Cc3cc(C(=O)NCc4ccc5c(N)nccc5c4)ccn3)ccc2n1` [Example 134, N-((1-aminoisoquinolin-6-yl)methyl)-2-((2-(methylsulfonyl)quinolin-6-yl)methyl)isonicotinamide], for which the 50% inhibitory concentration (IC50) was 100 to 1000 nM.

`Cc1ccc2c(cnn2Cc2cc(C(=O)NCc3c(C)cc(N)nc3C)ccn2)c1` [Example 108]: the half-inhibitory concentration (IC50) is under 100 nM. Under `Cc1nc(N)c(C(N)=O)cc1CNC(=O)c1ccnc(Cc2ccc3ncc(Cl)cc3c2)c1` [Example 27, 2-amino-5-((2-((3-chloroquinolin-6-yl)methyl)isonicotinamido)methyl)-6-methylnicotinamide] stands over 10000 nM. With `NCc1ccc2cc(Cc3cc(C(=O)NCc4ccc5c(N)nccc5c4)ccn3)ccc2n1` [Example 146, N-((1-aminoisoquinolin-6-yl)methyl)-2-((2-(aminomethyl)quinolin-6-yl)methyl)isonicotinamide], the IC50 fell in the range of 100 to 1000 nM. Under `Cc1nc(N)ccc1CNC(=O)c1ccnc(Cc2cc(CO)c3ncc(Cl)cc3c2)c1` [Example 97, N-((6-amino-2-methylpyridin-3-yl)methyl)-2-((3-chloro-8-(hydroxymethyl)quinolin-6-yl)methyl)isonicotinamide] stands under 100 nM; under `O=C(NCc1cc2c(Cl)c[nH]c2cc1F)c1ccnc(Cc2cnc3ccc(Cl)cc3c2)c1` [Example 126, N-((3-chloro-6-fluoro-1H-indol-5-yl)methyl)-2-((6-chloroquinolin-3-yl)methyl)isonicotinamide], under 100 nM; under `Cc1cnc2c(C#N)cc(Cc3cc(C(=O)NCc4cc5cc[nH]c5cc4F)ccn3)cc2c1` [Example 76, 2-((8-cyano-3-methylquinolin-6-yl)methyl)-N-((6-fluoro-1H-indol-5-yl)methyl)isonicotinamide], under 100 nM. As for `Cc1cc(N)nc(C)c1CNC(=O)c1ccnc(Cc2ccc3nc(C#N)ccc3c2)c1` [Example 131, N-(6-amino-2,4-dimethyl-pyridin-3-ylmethyl)-2-(2-cyano-quinolin-6-ylmethyl)-isonicotinamide], the IC50 is under 100 nM. Consider `N#Cc1cc(Cc2cc(C(=O)NCc3n[nH]c4ccc(Cl)cc34)ccn2)cc2cc(Cl)cnc12` [Example 54, 2-(3-chloro-8-cyano-quinolin-6-ylmethyl)-N-(5-chloro-1H-indazol-3-ylmethyl)-isonicotinamide], for which the IC50 is under 100 nM. With `N#Cc1ccnc2ccc(Cc3cc(C(=O)NCc4ccc5c(N)nccc5c4)ccn3)cc12` [Example 136, N-((1-aminoisoquinolin-6-yl)methyl)-2-((4-cyanoquinolin-6-yl)methyl)isonicotinamide], the IC50 is under 100 nM. Consider `Cc1ccc2ccc(Cc3cc(C(=O)NCc4ccc5c(N)nccc5c4)ccn3)cc2n1` [Example 127, N-((1-aminoisoquinolin-6-yl)methyl)-2-((2-methylquinolin-7-yl)methyl)isonicotinamide], for which the IC50 was under 100 nM.

Take `O=C(NCc1cc2c(Cl)c[nH]c2cc1F)c1ccnc(Cc2cnc3ccccc3c2)c1` [Example 125, N-((3-chloro-6-fluoro-1H-indol-5-yl)methyl)-2-(quinolin-3-ylmethyl)isonicotinamide]: the IC50 is under 100 nM. As for `Cc1nc(N)ccc1CNC(=O)c1ccnc(Cn2cc3cc(Cl)ccc3cc2=O)c1` [Example 86, N-((6-amino-2-methylpyridin-3-yl)methyl)-2-((7-chloro-3-oxoisoquinolin-2(3H)-yl)methyl)isonicotinamide], the half-maximal inhibitory concentration (IC50) lay in the range of 100 to 1000 nM. For the molecule `Cc1ccc2ccc(Cc3cc(C(=O)NCc4c(C)cc(N)nc4C)ccn3)cc2n1` [Example 129, N-((6-amino-2,4-dimethylpyridin-3-yl)methyl)-2-((2-methylquinolin-7-yl)methyl)isonicotinamide], the half-maximal inhibitory concentration (IC50) lay in the range of 100 to 1000 nM.

Take `COC(=O)c1cc(Cc2cc(C(=O)NCc3c(C)cc(N)nc3C)ccn2)cc2cc(Cl)cnc12` [Example 92, methyl 6-((4-(((6-amino-2,4-dimethylpyridin-3-yl)methyl)carbamoyl)pyridin-2-yl)methyl)-3-chloroquinoline-8-carboxylate]: the half-inhibitory concentration (IC50) is under 100 nM. Regarding `Cc1ccc2ncc(Cc3cc(C(=O)NCc4ccc5c(N)noc5c4)ccn3)cc2c1` [Example 48, N-((3-aminobenzo[d]isoxazol-6-yl)methyl)-2-((6-methylquinolin-3-yl)methyl)isonicotinamide], the concentration for half-maximal inhibition (IC50) was over 10000 nM. Under `Cc1ccc2ccc(Cc3cc(C(=O)NCc4cc5c(Cl)c[nH]c5cc4F)ccn3)cc2n1` [Example 128, N-((3-chloro-6-fluoro-1H-indol-5-yl)methyl)-2-((2-methylquinolin-7-yl)methyl)isonicotinamide] stands under 100 nM; under `O=C(NCc1n[nH]c2ccc(Cl)cc12)c1ccnc(Cc2ccc3ncc(Cl)cc3c2)c1` [Example 37, N-(5-chloro-1H-indazol-3-ylmethyl)-2-(3-chloro-quinolin-6-ylmethyl)-isonicotinamide], under 100 nM.

In the case of `Cc1nc(N)c(Cl)cc1CNC(=O)c1ccnc(Cc2ccc3ncc(Cl)cc3c2)c1` [Example 28, N-((6-amino-5-chloro-2-methylpyridin-3-yl)methyl)-2-((3-chloroquinolin-6-yl)methyl)isonicotinamide], the IC50 fell in the range of 1000 to 10000 nM.

In the case of `N#Cc1ccc2cc(Cc3cc(C(=O)NCc4ccc5c(N)nccc5c4)ccn3)ccc2n1` [Example 3, N-((1-aminoisoquinolin-6-yl)methyl)-2-((2-cyanoquinolin-6-yl)methyl)isonicotinamide], the IC50 was under 100 nM. Consider `O=C(NCc1cc2cc[nH]c2cc1F)c1ccnc(Cc2ccc3ncc(Cl)cc3c2)c1` [Example 41, 2-(3-chloro-quinolin-6-ylmethyl)-N-(6-fluoro-1H-indol-5-ylmethyl)-isonicotinamide], for which the IC50 is under 100 nM.

`Nc1nccc2cc(CNC(=O)c3ccnc(Cc4cnc5cc(Cl)ccc5c4)c3)ccc12` [Example 139, N-((1-aminoisoquinolin-6-yl)methyl)-2-((7-chloroquinolin-3-yl)methyl)isonicotinamide]: the IC50 is under 100 nM.

As for `N#Cc1cc(Cc2cc(C(=O)NCc3cc4c(Cl)c[nH]c4cc3F)ccn2)cc2cc(Cl)cnc12` [Example 49, N-((3-chloro-6-fluoro-1H-indol-5-yl)methyl)-2-((3-chloro-8-cyanoquinolin-6-yl)methyl)isonicotinamide], the IC50 is under 100 nM. Turning to `Cc1cc(N)nc(C)c1CNC(=O)c1ccnc(Cc2ccc3ncc(C#N)cc3c2)c1` [Example 7, N-((6-amino-2,4-dimethylpyridin-3-yl)methyl)-2-((3-cyanoquinolin-6-yl)methyl)isonicotinamide], the 50% inhibitory concentration (IC50) is under 100 nM.

For the molecule `N#Cc1cnc2ccc(Cc3cc(C(=O)NCc4cc5c(Cl)c[nH]c5cc4F)ccn3)cc2c1` [Example 5, N-((3-chloro-6-fluoro-1H-indol-5-yl)methyl)-2-((3-cyanoquinolin-6-yl)methyl)isonicotinamide], the IC50 is under 100 nM. Consider `Cc1nc(N)c(C#N)cc1CNC(=O)c1ccnc(Cc2ccc3ncc(Cl)cc3c2)c1` [Example 26, N-((6-amino-5-cyano-2-methylpyridin-3-yl)methyl)-2-((3-chloroquinolin-6-yl)methyl)isonicotinamide], for which the IC50 was 1000 to 10000 nM. To `NC(=O)c1ccc2cc(Cc3cc(C(=O)NCc4ccc5c(N)nccc5c4)ccn3)ccc2n1` [Example 4] belongs 100 to 1000 nM; to `Cc1cc(N)nc(C)c1CNC(=O)c1ccnc(Cc2ccc3nc(CN)ccc3c2)c1` [Example 46, N-((6-amino-2,4-dimethylpyridin-3-yl)methyl)-2-((2-(aminomethyl)quinolin-6-yl)methyl)isonicotinamide], under 100 nM; to `N#Cc1cc(Cc2cc(C(=O)NCc3cc4cc[nH]c4cc3F)ccn2)cc2cc(Cl)cnc12` [Example 52, 2-((3-chloro-8-cyanoquinolin-6-yl)methyl)-N-((6-fluoro-1H-indol-5-yl)methyl)isonicotinamide], under 100 nM.

For the origin of these results see patent US9611252B2 (LifeSci Pharmaceuticals, Inc., priority 2013, dated 2017).
